Source: patent US8192962B2, “Processes for detecting toxic substances” (Daikin Industries, Ltd., priority 2001, dated 2012)

Tested on: DNA repair protein genes
Test: DNA chip mRNA expression in yeast, DNA repair protein genes (Table 3)
Type: cell-based, Saccharomyces cerevisiae S288C
Conditions: incubated two hours, concentrations as in the 1st table
How it was run: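 Whole-genome yeast DNA chip hybridization (65° C., >12 h) of Cy-labeled cDNA from S288C cells exposed 2 h at 25° C. to a sub-lethal toxicant dose in YPD; value is intensity relative to chemical-free control.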

Measured: The level of expressed mRNA in the presence of chemical substance/The level of expressed mRNA in the absence of chemical substance

O=[N+]([O-])c1cc[n+]([O-])c2ccccc12 [(5), 4-nitroquinolin-N-oxide]
0.8: yeast gene YGL091C | yeast gene YIL143C | yeast gene YJR046W | yeast gene YMR035W | yeast gene YMR284W | yeast gene YNL250W | yeast gene YPL022W
0.5: yeast gene YEL037C
1.0: yeast gene YBL019W | yeast gene YDR369C | yeast gene YFL014W | yeast gene YGL058W | yeast gene YIL153W | yeast gene YJR052W | yeast gene YLR103C | yeast gene YML032C | yeast gene YMR096W
1.2: yeast gene YBR073W | yeast gene YCR014C | yeast gene YDL017W | yeast gene YDL059C | yeast gene YIR002C | yeast gene YLR233C | yeast gene YOL043C | yeast gene YOR386W | yeast gene YPL164C
1.7: yeast gene YJL026W | yeast gene YLR288C | yeast gene YMR072W
2.0: yeast gene YGR180C
0.9: yeast gene YEL019C | yeast gene YER162C | yeast gene YHR164C | yeast gene YIL036W
1.4: yeast gene YKL145W | yeast gene YNL312W
0.6: yeast gene YML058W
1.6: yeast gene YPR025C
0.7: yeast gene YDR054C | yeast gene YNL261W
1.1: yeast gene YAL015C | yeast gene YBR272C | yeast gene YDL200C | yeast gene YGL249W
1.3: yeast gene YGL127C | yeast gene YGR231C | yeast gene YNL213C | yeast gene YOR005C | yeast gene YPL194W
1.5: yeast gene YAR007C | yeast gene YGL163C | yeast gene YGR258C | yeast gene YIL072W
